According to ChEMBL document CHEMBL4177526, “Discovery and structure activity relationship of the first potent cryptosporidium FIKK kinase inhibitor” (Bioorg Med Chem, 2017):

Tests used:
[1] = molecular target: Serine/threonine-protein kinase ULK2 (Homo sapiens) (UniProt Q8IYT8); experiment: Inhibition of human ULK2 (1 to 1036 residues) assessed as residual activity at 500 nM in presence of 33P-ATP by filter binding assay relative to control
[2] = molecular target: NUAK family SNF1-like kinase 1 (Homo sapiens) (UniProt O60285); experiment: Inhibition of human NUAK1 (2 to 660 residues) assessed as residual activity at 500 nM in presence of 33P-ATP by filter binding assay relative to control
[3] = molecular target: serine/threonine-protein kinase D1 (Homo sapiens) (UniProt Q15139); experiment: Inhibition of human PKD1 (2 to 912 residues) at 500 nM in presence of 33P-ATP by filter binding assay relative to control
[4] = test system: TGF-beta receptor type-1 (Homo sapiens), P36897 [T204D]; experiment: Inhibition of human TGFbetaR1 T204D mutant (200 to 501 residues) at 500 nM in presence of 33P-ATP by filter binding assay relative to control
[5] = molecular target: 3-phosphoinositide-dependent protein kinase 1 (Homo sapiens) (UniProt O15530); experiment: Inhibition of human PDK1 (52 to 556 residues) assessed as residual activity at 500 nM in presence of 33P-ATP by filter binding assay relative to control
[6] = molecular target: Mitogen-activated protein kinase 10 (Homo sapiens) (UniProt P53779); experiment: Inhibition of human JNK3 (40 to 422 residues) assessed as residual activity at 500 nM in presence of 33P-ATP by filter binding assay relative to control
[7] = molecular target: Casein kinase II subunit alpha (Homo sapiens) (UniProt P68400); experiment: Inhibition of human CK2alpha (2 to 391 residues) assessed as residual activity at 500 nM in presence of 33P-ATP by filter binding assay relative to control
[8] = molecular target: Calcium/calmodulin-dependent protein kinase type 1 (Homo sapiens) (UniProt Q14012); experiment: Inhibition of human CAMK1 (2 to 369 residues) assessed as residual activity at 500 nM in presence of 33P-ATP by filter binding assay relative to control
[9] = molecular target: Mitogen-activated protein kinase 14 (Homo sapiens) (UniProt Q16539); experiment: Inhibition of human p38alpha (1 to 360 residues) at 500 nM in presence of 33P-ATP by filter binding assay relative to control
[10] = molecular target: Tyrosine-protein kinase CSK (Homo sapiens) (UniProt P41240); experiment: Inhibition of human CSK (1 to 450 residues) assessed as residual activity at 500 nM in presence of 33P-ATP by filter binding assay relative to control
[11] = molecular target: Insulin receptor-related protein (Homo sapiens) (UniProt P14616); experiment: Inhibition of human IRR (944 to 1236 residues) assessed as residual activity at 500 nM in presence of 33P-ATP by filter binding assay relative to control
[12] = molecular target: Dual specificity tyrosine-phosphorylation-regulated kinase 1A (Homo sapiens) (UniProt Q13627); experiment: Inhibition of human DYRK1A (1 to 502 residues) assessed as residual activity at 500 nM in presence of 33P-ATP by filter binding assay relative to control
[13] = molecular target: Dual specificity tyrosine-phosphorylation-regulated kinase 2 (Homo sapiens) (UniProt Q92630); experiment: Inhibition of human DYRK2 (3 to 528 residues) assessed as residual activity at 500 nM in presence of 33P-ATP by filter binding assay relative to control
[14] = molecular target: Serine/threonine-protein kinase Nek2 (Homo sapiens) (UniProt P51955); experiment: Inhibition of human NEK2A (1 to 445 residues) assessed as residual activity at 500 nM in presence of 33P-ATP by filter binding assay relative to control
[15] = molecular target: Serine/threonine-protein kinase pim-1 (Homo sapiens) (UniProt P11309); experiment: Inhibition of human PIM1 (2 to 313 residues) assessed as residual activity at 500 nM in presence of 33P-ATP by filter binding assay relative to control
[16] = molecular target: Dual specificity protein kinase TTK (Homo sapiens) (UniProt P33981); experiment: Inhibition of human TTK (1 to 857 residues) assessed as residual activity at 500 nM in presence of 33P-ATP by filter binding assay relative to control
[17] = test system: Serine/threonine-protein kinase OSR1 (Homo sapiens), O95747 [T185E]; experiment: Inhibition of human OSR1 T185E mutant (1 to 342 residues) assessed as residual activity at 500 nM in presence of 33P-ATP by scintillation counting method relative to control
[18] = molecular target: TAK1/TAB1 (Homo sapiens) (UniProt Q15750+O43318); experiment: Inhibition of human TAK1 (1 to 303 residues)/TAB1 (437 to 504 residues) assessed as residual activity at 500 nM in presence of 33P-ATP by filter binding assay relative to control; assay type: protein-complex assay
[19] = molecular target: Dual specificity tyrosine-phosphorylation-regulated kinase 3 (Homo sapiens) (UniProt O43781); experiment: Inhibition of human DYRK3 (1 to 588 residues) assessed as residual activity at 500 nM in presence of 33P-ATP by filter binding assay relative to control
[20] = molecular target: Death-associated protein kinase 1 (Homo sapiens) (UniProt P53355); experiment: Inhibition of human DAPK1 (1 to 363 residues) assessed as residual activity at 500 nM in presence of 33P-ATP by filter binding assay relative to control
[21] = molecular target: Homeodomain-interacting protein kinase 3 (Homo sapiens) (UniProt Q9H422); experiment: Inhibition of human HIPK3 (161 to 562 residues) assessed as residual activity at 500 nM in presence of 33P-ATP by filter binding assay relative to control
[22] = molecular target: MAP kinase-activated protein kinase 5 (Homo sapiens) (UniProt Q8IW41); experiment: Inhibition of human PRAK (1 to 471 residues) assessed as residual activity at 500 nM in presence of 33P-ATP by filter binding assay relative to control
[23] = molecular target: MAP/microtubule affinity-regulating kinase 4 (Homo sapiens) (UniProt Q96L34); experiment: Inhibition of human MARK4 (1 to 367 residues) assessed as residual activity at 500 nM in presence of 33P-ATP by filter binding assay relative to control
[24] = molecular target: Interleukin-1 receptor-associated kinase 4 (Homo sapiens) (UniProt Q9NWZ3); experiment: Inhibition of human IRAK4 (14 to 460 residues) assessed as residual activity at 500 nM in presence of 33P-ATP by filter binding assay relative to control
[25] = molecular target: Dual specificity protein kinase CLK2 (Homo sapiens) (UniProt P49760); experiment: Inhibition of human CLK2 (138 to 499 residues) assessed as residual activity at 500 nM in presence of 33P-ATP by filter binding assay relative to control

SMILES: Cc1cccc(-c2nc(N)sc2-c2ccc3ncccc3n2)c1
- Activity [1]: 118%
- Activity [2]: 86%
- inhibition [3]: 91%
- inhibition [4]: 86%
- Activity [5]: 118%
- Activity [6]: 90%
- Activity [7]: 119%
- Activity [8]: 112%
- inhibition [9]: 91%
- Activity [10]: 99%
- Activity [11]: 94%
- Activity [12]: 132%
- Activity [13]: 116%
- Activity [14]: 102%
- Activity [15]: 97%
- Activity [16]: 117%
- Activity [17]: 119%
- Activity [18]: 40%
- Activity [19]: 109%
- Activity [20]: 96%
- Activity [21]: 104%
- Activity [22]: 105%
- Activity [23]: 116%
- Activity [24]: 110%
- Activity [25]: 76%
